Measured values from PubChem BioAssay AID1963974 (Molecular Pharmacology Branch, DTP, NCI, 2024).

Test system: 648629-189-R-J1-PDC spheroids with HUVEC/MSC, viability
Assay: Anticancer human tumor 648629-189-R-J1-PDC patient-derived bladder carcinoma cell line growth inhibition [PI3K]
Conditions: for IC50: curve of first compound; for viability, T/C: stronger effect = lower value
From the text: Combinatorial screen of targeted agents with the PI3K inhibitors inavolisib, alpelisib, duvelisib, and copanlisib in multi-cell type tumor spheroids
A high-throughput screen of multi-cell type tumor spheroids was designed to identify active combinations of targeted small molecules and PI3K pathway inhibitors. Complex spheroids include a stromal component modeled by human endothelial cells (HUVEC) and fibroblasts modeled by human mesenchymal stem cells (MSCs). The concentration ranges selected for each drug and investigational agent were based upon clinically achievable concentrations if the clinical Cmax of the agent was known.
Compounds. The drugs and investigational agents: inavolisib (NSC800729), alpelisib (NSC765974), duvelisib (NSC772469), copanlisib (NSC816437), ipatasertib (NSC767898), afuresertib (NSC778305), talazoparib (NSC767125), sapanisertib (NSC764658), selumetinib (NSC741078), tovorafenib (DAY101, NSC766906), vemurafenib (NSC761431), ravoxertinib (NSC781343), sotorasib (NSC818433), MRTX1133 (NSC 836407), abemaciclib (NSC 768073), palbociclib (NSC758247), venetoclax (NSC 766270), SY5609 (NSC837396), enzalutamide (NSC755605), and darolutamide (NSC825331), were obtained from the National Cancer Institute (NCI) Developmental Therapeutics Program Chemical Repository. The FDA-approved anticancer drug set is available from the NCI Developmental Therapeutics Program. […] The stock solutions were prepared in dimethyl sulfoxide (DMSO, Sigma-Aldrich, St. Louis, MO, cat. D2650) at 800-fold the tested concentration and stored at -70 degrees C prior to their use. All drugs and investigational agents were tested over a range starting from a high concentration at or near the clinical Cmax and decreasing in half-log increments. If the clinical Cmax for an agent had not been determined, the highest concentration tested was 10 microM.
Cell Culture. All cells were maintained in an incubator at 37 degrees C and 5% CO2 with 95% humidity. The PDC lines were cultured according to standard operating procedures established by the NCI PDMR (https://pdmr.cancer.gov/sops/default.htm). All PDCs were thawed and cultured in Matrigel-coated flasks prepared with a working solution of 1X Ham's F-12 nutrient mix, without supplementation (Invitrogen, Waltham, MA, cat. 11765054), 100 U/mL penicillin-streptomycin (Invitrogen, cat. 15140122), and 2.5% Matrigel (Corning Inc., Corning, NY, cat. 354248) for the first three passages. The 354836-022-R-J1-PDC, 475296-252-R-J1-PDC, and 997726-040-R-J2-PDC lines were cultured in 6A media, which includes advanced DMEM/F-12 (Thermo Fisher Scientific, cat. 12634028), 10 mM HEPES (Thermo Fisher Scientific, cat. 15630080), 1X GlutaMAX supplement (Thermo Fisher Scientific, cat. 35050061), 0.1 mg/mL primocin (InvivoGen, San Diego, CA, cat. ant-pm-2), 10% defined fetal bovine serum, heat inactivated (HyClone Laboratories Inc., Logan, UT, cat. SH30070.03HI), 50% L-WRN conditioned media (ATCC, cat. CRL-3276), 1.25 mM N-Acetyl-L-cysteine (Sigma-Aldrich, cat. A9165), 10 mM nicotinamide (Sigma-Aldrich, cat. N0636), 1X B-27 supplement (Thermo Fisher Scientific, cat. 17504044), 1X N-2 supplement (Thermo Fisher Scientific, cat. 17502048), and 10 microM Y-27632 dihydrochloride (Tocris Bioscience, Bristol, United Kingdom, cat. 1254). The 624824-186-R-J2-PDC line was cultured in 6C/Colon 1B media, which includes all 6A media components plus 50 ng/mL human EGF recombinant protein (Thermo Fisher Scientific, cat. PHG0311). […]

[1] = second compound 0.0316 µM, first compound 0.0316 µM
[2] = second compound 0.0316 µM, first compound 0.1 µM
[3] = second compound 0.0316 µM, first compound 0.316 µM
[4] = second compound 0.0316 µM, first compound 1 µM
[5] = second compound 0.0316 µM, first compound 3.16 µM
[6] = second compound 0.0316 µM, first compound 10 µM
[7] = second compound 0.1 µM, first compound 0.0316 µM
[8] = second compound 0.1 µM, first compound 0.1 µM
[9] = second compound 0.1 µM, first compound 0.316 µM
[10] = second compound 0.1 µM, first compound 1 µM
[11] = second compound 0.1 µM, first compound 3.16 µM
[12] = second compound 0.1 µM, first compound 10 µM
[13] = second compound 0.316 µM, first compound 0.0316 µM
[14] = second compound 0.316 µM, first compound 0.1 µM
[15] = second compound 0.316 µM, first compound 0.316 µM
[16] = second compound 0.316 µM, first compound 1 µM
[17] = second compound 0.316 µM, first compound 3.16 µM
[18] = second compound 0.316 µM, first compound 10 µM
[19] = second compound 1 µM, first compound 0.0316 µM
[20] = second compound 1 µM, first compound 0.1 µM
[21] = second compound 1 µM, first compound 0.316 µM
[22] = second compound 1 µM, first compound 1 µM
[23] = second compound 1 µM, first compound 3.16 µM
[24] = second compound 1 µM, first compound 10 µM
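Note: spheroids exposed to agents for seven days before reading.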
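Throughout, for viability, T/C: percent of vehicle control luminescence where 100% = DMSO treated spheroids.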

SMILES: CNC(=O)c1ccc(N2C(=S)N(c3ccc(C#N)c(C(F)(F)F)c3)C(=O)C2(C)C)cc1F + CC(Nc1ccc2c(c1)OCCn1cc(N3C(=O)OCC3C(F)F)nc1-2)C(N)=O
- IC50 (second compound 0.00316 µM): > 10 µM
- IC50 (second compound 0.01 µM): > 10 µM
- IC50 (second compound 0.0316 µM): > 10 µM
- IC50 (second compound 0.1 µM): > 10 µM
- IC50 (second compound 0.316 µM): > 10 µM
- IC50 (second compound 1 µM): > 10 µM
- viability, T/C (second compound 0.00316 µM, first compound 0.0316 µM): 107%
- viability, T/C (second compound 0.00316 µM, first compound 0.1 µM): 96.5%
- viability, T/C (second compound 0.00316 µM, first compound 0.316 µM): 107%
- viability, T/C (second compound 0.00316 µM, first compound 1 µM): 97.6%
- viability, T/C (second compound 0.00316 µM, first compound 3.16 µM): 110%
- viability, T/C (second compound 0.00316 µM, first compound 10 µM): 83.4%
- viability, T/C (second compound 0.01 µM, first compound 0.0316 µM): 99.6%
- viability, T/C (second compound 0.01 µM, first compound 0.1 µM): 109%
- viability, T/C (second compound 0.01 µM, first compound 0.316 µM): 97.2%
- viability, T/C (second compound 0.01 µM, first compound 1 µM): 98.1%
- viability, T/C (second compound 0.01 µM, first compound 3.16 µM): 94.8%
- viability, T/C (second compound 0.01 µM, first compound 10 µM): 87.1%
- viability, T/C [1]: 103%
- viability, T/C [2]: 107%
- viability, T/C [3]: 102%
- viability, T/C [4]: 101%
- viability, T/C [5]: 90.5%
- viability, T/C [6]: 78.5%
- viability, T/C [7]: 93%
- viability, T/C [8]: 94.8%
- viability, T/C [9]: 102%
- viability, T/C [10]: 102%
- viability, T/C [11]: 88%
- viability, T/C [12]: 79.2%
- viability, T/C [13]: 83.4%
- viability, T/C [14]: 79.1%
- viability, T/C [15]: 93%
- viability, T/C [16]: 75.5%
- viability, T/C [17]: 84.3%
- viability, T/C [18]: 68%
- viability, T/C [19]: 69.7%
- viability, T/C [20]: 67.5%
- viability, T/C [21]: 72.1%
- viability, T/C [22]: 63.7%
- viability, T/C [23]: 75.4%
- viability, T/C [24]: 68%

SMILES: C#Cc1c(F)ccc2cc(O)cc(-c3ncc4c(N5CC6CCC(C5)N6)nc(OCC56CCCN5CC(F)C6)nc4c3F)c12 (centres undefined) + CC(Nc1ncnc2nc[nH]c12)c1cc2cccc(Cl)c2c(=O)n1-c1ccccc1
- IC50 (second compound 0.0316 µM): > 10 µM
- IC50 (second compound 0.1 µM): > 10 µM
- IC50 (second compound 0.316 µM): > 10 µM
- IC50 (second compound 1 µM): > 10 µM
- IC50 (second compound 3.16 µM): > 10 µM
- IC50 (second compound 10 µM): > 10 µM
- viability, T/C [1]: 116%
- viability, T/C [2]: 114%
- viability, T/C [3]: 103%
- viability, T/C [4]: 107%
- viability, T/C [5]: 105%
- viability, T/C [6]: 117%
- viability, T/C [7]: 116%
- viability, T/C [8]: 100%
- viability, T/C [9]: 104%
- viability, T/C [10]: 106%
- viability, T/C [11]: 117%
- viability, T/C [12]: 110%
- viability, T/C [13]: 102%
- viability, T/C [14]: 110%
- viability, T/C [15]: 101%
- viability, T/C [16]: 113%
- viability, T/C [17]: 116%
- viability, T/C [18]: 111%
- viability, T/C [19]: 92.8%
- viability, T/C [20]: 104%
- viability, T/C [21]: 107%
- viability, T/C [22]: 114%
- viability, T/C [23]: 107%
- viability, T/C [24]: 94.4%
- viability, T/C (second compound 3.16 µM, first compound 0.0316 µM): 92%
- viability, T/C (second compound 3.16 µM, first compound 0.1 µM): 91.4%
- viability, T/C (second compound 3.16 µM, first compound 0.316 µM): 90.7%
- viability, T/C (second compound 3.16 µM, first compound 1 µM): 90.1%
- viability, T/C (second compound 3.16 µM, first compound 3.16 µM): 93.4%
- viability, T/C (second compound 3.16 µM, first compound 10 µM): 88.1%
- viability, T/C (second compound 10 µM, first compound 0.0316 µM): 90.7%
- viability, T/C (second compound 10 µM, first compound 0.1 µM): 86.1%
- viability, T/C (second compound 10 µM, first compound 0.316 µM): 75.7%
- viability, T/C (second compound 10 µM, first compound 1 µM): 102%
- viability, T/C (second compound 10 µM, first compound 3.16 µM): 92.5%
- viability, T/C (second compound 10 µM, first compound 10 µM): 80.3%
